These results are taken from patent US11198673B2, “Therapeutic compounds and compositions” (eXIthera Pharmaceuticals, Inc., priority 2014, dated 2021).

The IC50 is the point on the concentration scale where inhibition reaches its midpoint. For orientation: fraction unbound means free concentration divided by total concentration. Usually solubility stands for how much of the substance goes into solution per volume.

The target in the first data set is T1, human Factor XIa (Homo sapiens, UniProt P03951).
T1 construct: Enzyme: Factor XIa; 0.25 μM in 50% glycerol (20 μg/mL)
T1 sequence (P03951 388-625 limits assumed): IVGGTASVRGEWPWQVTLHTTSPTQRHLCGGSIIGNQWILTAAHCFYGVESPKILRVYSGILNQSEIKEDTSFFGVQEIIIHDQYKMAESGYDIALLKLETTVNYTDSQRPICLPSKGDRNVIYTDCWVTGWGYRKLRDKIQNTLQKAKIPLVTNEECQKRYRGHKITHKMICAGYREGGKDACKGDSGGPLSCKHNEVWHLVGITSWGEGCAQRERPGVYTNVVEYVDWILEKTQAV
T1 sequence (P03951 19-387 partner limits assumed): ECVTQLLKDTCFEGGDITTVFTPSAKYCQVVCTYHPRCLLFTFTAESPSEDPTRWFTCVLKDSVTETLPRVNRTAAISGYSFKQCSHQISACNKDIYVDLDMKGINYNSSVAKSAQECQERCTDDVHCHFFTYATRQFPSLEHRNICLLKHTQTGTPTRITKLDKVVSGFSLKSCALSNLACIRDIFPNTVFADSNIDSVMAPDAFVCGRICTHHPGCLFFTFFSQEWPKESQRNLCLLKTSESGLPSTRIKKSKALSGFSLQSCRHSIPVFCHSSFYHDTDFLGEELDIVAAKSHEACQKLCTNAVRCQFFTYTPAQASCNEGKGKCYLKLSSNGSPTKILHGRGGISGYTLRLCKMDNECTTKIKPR
Briefly: Factor XIa enzyme inhibition assay (IC50, purified enzyme). In kind it is biochemical. The settings on record: purified enzyme 0.25 nM, substrate 50 μM; read-out: Potency hFXIa IC50. The essentials:
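Fluorogenic Glp-Pro-Arg-AMC cleavage, 50 μM substrate, 0.25 nM enzyme, in 20 mM Hepes pH 7.4, 150 mM NaCl, 0.02% Tween 20. Serial two-fold compound dilutions from starting concentrations of 20, 2 and 0.2 μM. Read every minute for 30 min at 30° C; IC50 from a four-parameter fit of dose-response.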
On to `C[C@@H](NC(=O)N1C(=O)C(Cc2ccnc(Cl)c2)[C@H]1C(=O)O)c1ccc2c(c1)OC(F)(F)O2` (stereo partly shown) [Example 128], for which the IC50 was > 1000 nM.

For `C[C@@H](NC(=O)N1C(=O)[C@H](Cc2ccnc(N)c2)[C@H]1C(=O)O)c1ccc2c(c1)OC(F)(F)O2` [Example 91], the IC50 is < 10 nM.

Regarding `CCOC(=O)[C@@H]1C(CCc2cccc(Cl)c2)C(=O)N1C(=O)N[C@@H](C1CCCCC1)C(F)(F)F` (stereo partly shown) [Example 158], the half-maximal inhibitory concentration (IC50) is 100 to 1000 nM.

For a further data set, the target named is T2, Factor Xa (Homo sapiens, UniProt P00742).
T2 construct: Factor Xa; 0.2 μM in 50% glycerol (9.2 μg/mL)
T2 sequence (P00742 235-488 limits assumed): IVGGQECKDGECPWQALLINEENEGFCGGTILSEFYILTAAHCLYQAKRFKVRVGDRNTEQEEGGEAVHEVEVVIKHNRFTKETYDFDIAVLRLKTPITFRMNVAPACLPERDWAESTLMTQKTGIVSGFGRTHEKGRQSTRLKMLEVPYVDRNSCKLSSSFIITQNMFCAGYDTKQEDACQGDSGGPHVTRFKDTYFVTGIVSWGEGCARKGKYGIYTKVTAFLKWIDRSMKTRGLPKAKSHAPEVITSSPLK
T2 sequence (P00742 41-179 partner limits assumed): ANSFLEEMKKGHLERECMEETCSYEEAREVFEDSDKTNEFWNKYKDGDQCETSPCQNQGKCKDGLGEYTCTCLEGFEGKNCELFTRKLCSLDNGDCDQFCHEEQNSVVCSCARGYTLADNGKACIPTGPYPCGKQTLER
Briefly: Dose response assay for protease inhibitors: Factor Xa (FXIa fold selectivity). In kind it is biochemical. The settings on record: fold selectivity for FXIa over Factor Xa.
As to `C[C@@H](NC(=O)N1C(=O)[C@H](Cc2ccnc(N)c2)[C@H]1C(=O)O)c1ccc2c(c1)OC(F)(F)O2` [Example 91], the “FXIa Fold Selectivity FXa” value is “I (“I” indicates >1000)”.

The next data set concerns the target T3, Thrombin (Homo sapiens, UniProt P00734).
T3 construct: Thrombin; 0.2 μM in 50% glycerol (7.34 μg/mL)
Kind of data set: Dose response assay for protease inhibitors: thrombin (FXIa fold selectivity). The data set is classed as biochemical. As to conditions: fold selectivity for FXIa over thrombin.
As to `C[C@@H](NC(=O)N1C(=O)[C@H](Cc2ccnc(N)c2)[C@H]1C(=O)O)c1ccc2c(c1)OC(F)(F)O2` [Example 91], the “FXIa Fold Selectivity Thrombin” value is given as “I (“I” indicates >1000)”.

The test system of a further data set is Trypsin. Kind of data set: Dose response assay for protease inhibitors: trypsin (FXIa fold selectivity). The data set is classed as biochemical. The settings on record: fold selectivity for FXIa over trypsin.
As to `C[C@@H](NC(=O)N1C(=O)[C@H](Cc2ccnc(N)c2)[C@H]1C(=O)O)c1ccc2c(c1)OC(F)(F)O2` [Example 91], the “FXIa Fold Selectivity Trypsin” value was “G (“G” indicates 1-500)”.

System in a further data set: not listed separately
Kind of data set: β-Lactam stability in rat plasma. The data set is classed as in vitro ADME. The settings on record: normal rat plasma, room temperature; read-out: Rat Plasma Stability (T1/2; min). The essentials:
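Compounds incubated in normal rat plasma at room temperature, sampled into acetonitrile from 2 to 480 min. Supernatants analysed by HPLC-MS on C18, extracted ion chromatograms of parent and parent+18 (H2O adduct) integrated; T½ = ln(2)/k from single-phase exponential decay fit.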
As to `C[C@@H](NC(=O)N1C(=O)C(Cc2ccnc(Cl)c2)[C@H]1C(=O)O)c1ccc2c(c1)OC(F)(F)O2` (stereo partly shown) [Example 128], the half-life was > 1.67 h.

Regarding `C[C@@H](NC(=O)N1C(=O)[C@H](Cc2ccnc(N)c2)[C@H]1C(=O)O)c1ccc2c(c1)OC(F)(F)O2` [Example 91], the half-life is > 1.67 h.

System in the next data set: not listed separately
Kind of data set: in vitro.
Settings: not given
How it is done:
The following procedure was used to determine the plasma protein binding of a test compound in pooled plasma from human (mixed gender) via equilibrium dialysis in a 96-well plate format. The dialysate compartment is loaded with phosphate-buffered saline (pH 7.4) and the sample side is loaded with plasma spiked with the test compound at a concentration of 10 μM. After loading, samples are covered and incubated for 4 hours at 37° C. After incubation, each compartment is sampled, diluted with acetonitrile/buffer and centrifuged. The supernatants are analyzed by HPLC-MS/MS. The amount measured in the plasma compartment includes both free and bound drug, while that on the buffer side represents free drug only; the differences are used to calculate the percentage plasma protein bound.
In the case of `C=C[C@H]1C[N@@]2CC[C@H]1C[C@@H]2[C@@H](O)c1ccnc2ccc(OC)cc12` [quinidine, reference compound], the “binding of reference compounds to human plasma proteins” value is listed as “medium”.

Turning to `CCCC(=O)Nc1ccc(OCC(O)CNC(C)C)c(C(C)=O)c1` (stereo not shown) [acebutolol, reference compound], the “binding of reference compounds to human plasma proteins” value is “low”.

Still in this data set, the particulars now being: both, human, plasma, pH 7.4.
For `C[C@@H](NC(=O)N1C(=O)C(Cc2ccnc(Cl)c2)[C@H]1C(=O)O)c1ccc2c(c1)OC(F)(F)O2` (stereo partly shown) [Example 128], the free fraction (fraction unbound) at 4 h, 10 µM is < 0.02.

The compound `C[C@@H](NC(=O)N1C(=O)[C@H](Cc2ccnc(N)c2)[C@H]1C(=O)O)c1ccc2c(c1)OC(F)(F)O2` [Example 91] yielded a fraction unbound at 4 h, 10 µM of 0.02 to 0.1.

In the case of `CCOC(=O)[C@@H]1C(CCc2cccc(Cl)c2)C(=O)N1C(=O)N[C@@H](C1CCCCC1)C(F)(F)F` (stereo partly shown) [Example 158], the fraction unbound at 4 h, 10 µM was > 0.1.

System in another data set: not listed separately
Briefly: physchem. The data set is classed as physicochemical. The settings on record: pH 7.4, aqueous buffer, kinetic from dmso stock. How it is done:
The test compound was prepared at 200 μM in PBS from a 10 mM DMSO stock solution. The final DMSO concentration was 2%. The PBS buffer samples were mixed thoroughly followed by incubation at room temperature for 24 h. At the end of the incubation, the PBS buffer samples were centrifuged and supernatants analyzed by HPLC.
Regarding `C[C@@H](NC(=O)N1C(=O)C(Cc2ccnc(Cl)c2)[C@H]1C(=O)O)c1ccc2c(c1)OC(F)(F)O2` (stereo partly shown) [Example 128], the solubility at 4 h is > 100 µM.

With `C[C@@H](NC(=O)N1C(=O)[C@H](Cc2ccnc(N)c2)[C@H]1C(=O)O)c1ccc2c(c1)OC(F)(F)O2` [Example 91], the solubility at 4 h is > 100 µM.

For the compound `CCOC(=O)[C@@H]1C(CCc2cccc(Cl)c2)C(=O)N1C(=O)N[C@@H](C1CCCCC1)C(F)(F)F` (stereo partly shown) [Example 158], the solubility at 4 h was < 1 µM.

System in a further data set: not listed separately
Briefly: in vitro. As to conditions: both, human, microsomes, pH 7.4. How it is done:
The following procedure was used to determine the stability of a test compound in pooled liver microsomes from human (mixed gender) in 96-well plate format. The test compound was quantified at five time points by HPLC-MS/MS analysis. The final microsomal protein concentration in the assay was 0.1 mg/mL. […] The test compound was pre-incubated with human liver microsomes in phosphate buffer (pH 7.4) for 5 min in a 37° C. shaking waterbath. The reaction was initiated by adding NADPH-generating system and incubated for 0, 15, 30, 45, and 60 minutes. The reaction was stopped by transferring the incubation mixture to acetonitrile/methanol. Samples were then mixed and centrifuged and the supernatants used for HPLC-MS/MS analysis. Peak areas corresponding to the test compound were recorded. The compound remaining was calculated by comparing the peak area at each time point to time zero.
In the case of `C[C@@H](NC(=O)N1C(=O)C(Cc2ccnc(Cl)c2)[C@H]1C(=O)O)c1ccc2c(c1)OC(F)(F)O2` (stereo partly shown) [Example 128], the half-life at 0.1 µM was > 1 h.

In the case of `C[C@@H](NC(=O)N1C(=O)[C@H](Cc2ccnc(N)c2)[C@H]1C(=O)O)c1ccc2c(c1)OC(F)(F)O2` [Example 91], the half-life at 0.1 µM was > 1 h.

With `CCOC(=O)[C@@H]1C(CCc2cccc(Cl)c2)C(=O)N1C(=O)N[C@@H](C1CCCCC1)C(F)(F)F` (stereo partly shown) [Example 158], the half-life at 0.1 µM lay within 0.5 to 1 h.
